EC50 and Activity data for 1 molecule are collected here from ChEMBL document CHEMBL1151355, “The isolation of loliolide from an Indian Ocean opisthobranch mollusc” (1980).

≈ marks a conversion by molar mass, not a printed value. Calls of active or inactive are those of the source. The rule behind the calls is not given here.

In one assay the test system is KB. The assay can be described thus: Cytotoxicity against human KB cells. Format: functional. To be noted: read-out: ED50 (the source's name).
In assay [1] the test system is P388. The assay can be described thus: Cytotoxicity against mouse P388 cells. Format: functional. To be noted: read-out: ED50 (the source's name).
The subject of assay [2] is P388. The assay can be described thus: In vivo cytotoxicity against mouse P388 cells at 2.5 to 10 mg/kg. Format: functional, organism-based.

For the molecule `CC1(C)CC(O)C[C@@]2(C)OC(=O)C=C12` (stereo partly drawn), the results for the EC50 in the assay on KB and with P388 [1] were 10 µg/mL (≈ 51 µM) and 3.5 µg/mL (≈ 17.8 µM), respectively. For the same molecule, the result with P388 [2] was inactive.
